Source: patent publication US12161646B2, “Polycyclic carbamoylpyridone derivatives, pharmaceutical compositions and use thereof” (JIAXING ANDICON BIOTECH CO., LTD., priority 2018, dated 2024)

Legend:
influenza virus = assay: CPE suppression effect confirmation test; type: cell-based; conditions: for CPE inhibitory effect compared with S-033188A: relative to S-033188A; for EC50: unidentified influenza virus, 72 h, read-out: CPE_EC50
[1] = Detection of toxicity of samples to MDCK cells (alamarBlue); type: cell-based; conditions: dog, 48 hours incubation
Source text: Example 9: Detection of Toxicity of Samples to MDCK Cells
The experiment uses alamarBlue® (Invitrogen) kit to detect the toxic effects of drugs on cells.
Experimental principle: The experiment uses alamarBlue® (Invitrogen) kit to detect the toxic effects of drugs on cells. AlamarBlue® is a redox indicator that produces changes in absorbance and fluorescent signals based on cellular metabolic activity. AlamarBlue® is freely soluble in water. After its oxidized form enters cells, it will be reduced by mitochondrial enzymes to produce measurable fluorescence and color changes. It is used for quantitative analysis of cell viability and cell proliferation, and for in vitro cytotoxicity studies. Normal cells with metabolic activity can convert the reagents to produce strong fluorescence and color changes.
Experimental procedure: MDCK cells were seeded in a 96-well cell culture plate, and cultured till cell attachment for later use. The drug was serially 3 times diluted from 2 times the highest test concentration to 8 gradients. The drug was added to the cells and cultured in a CO2 incubator at 37° C. […] The toxicity of the drug to cells is inversely proportional to the activity of the cells and is expressed as the activity of the cells. cell activity (%)=(drug group-blank control)/(cell control-blank control)*100 Calculation formula: […]

Bioavailability test = type: in vivo, SD rats; conditions: for BA%: SD rats, from AUC of oral and intravenous administration; for half-life: SD, rat, in vivo, iv
Method: Example 6: Bioavailability Test
<Experimental Materials and Methods for Oral Absorption Research>
• (1) Animals used: SD rats are used. • (2) Feeding conditions: SD rats were allowed to take in solid feed and purified water freely. • (3) Dosing amount and grouping setting: Oral or intravenous administration were performed at prescribed dosage. The groups were set as follows. (the dosage of each compound varied)
Oral administration 1 to 30 mg/kg (n=5 to 6)
Intravenous administration 0.5 to 10 mg/kg (n=5 to 6) • (4) Preparation of dosing solution: suspension was used for oral administration through intragastric administration. Solution was used for intravenous administration through tail vein. • (5) Evaluation items: Blood was collected overtime, and the concentrations of the drugs in plasma were determined by LC/MS/MS. • (6) Statistical analysis: For concentration changes in plasma, the area under the concentration-time curve (AUC) in plasma was calculated using the nonlinear least squares method, and the bioavailability (BA) was calculated from the AUC in the oral administration group and the intravenous administration group, and the elimination half-life of drug concentration in plasma through intravenous administration was counted.

[2] = test system: A/WS/33, A/Victoria/3/75 or B/Maryland/1/59; type: in vivo, BALB/cAnNCrlCrlj mice; conditions: single oral administration, 50% lethal suppression, 14 days after infection

Structure (SMILES) | CPE inhibitory effect compared with S-033188A (influenza virus) | EC50 (influenza virus) | CC50 at 48 h [1] | BA% (Bioavailability test) | half-life (Bioavailability test) | ED50 [2]
[2H][C@]1(N2[C@@H]3COCCN3C(=O)c3c(O)c(=O)ccn32)c2ccccc2SCc2c1ccc(F)c2F [1A] | twice | 0.00068 µM | 48.3 µM | 7.1% | 4 h | –
O=C1c2c(O)c(=O)ccn2N([C@@H]2c3ccccc3SCc3c2ccc(F)c3F)[C@@H]2COCCN12 [S-033188A, reference compound] | – | – | 29.9 µM | 4.7% | 3.8 h | –
[2H]C1([2H])Sc2ccccc2[C@@H](N2[C@@H]3COCCN3C(=O)c3c(OCOC(=O)OC)c(=O)ccn32)c2ccc(F)c(F)c21 [2B] | – | – | – | 15.9% | – | 0.71 mg/kg/day
[2H]C1([2H])Sc2ccccc2[C@]([2H])(N2[C@@H]3COCCN3C(=O)c3c(OCOC(=O)OC)c(=O)ccn32)c2ccc(F)c(F)c21 [3B] | – | – | – | 19.8% | – | 0.33 mg/kg/day
[2H]C1([2H])Sc2ccccc2[C@]([2H])(N2[C@@H]3COCCN3C(=O)c3c(O)c(=O)ccn32)c2ccc(F)c(F)c21 [3A] | twice | 0.0006 µM | – | 7.8% | 5.2 h | –
[2H][C@]1(N2[C@@H]3COCCN3C(=O)c3c(OCOC(=O)OC)c(=O)ccn32)c2ccccc2SCc2c1ccc(F)c2F [1B] | – | – | – | 18.4% | – | 0.41 mg/kg/day
COC(=O)OCOc1c2n(ccc1=O)N([C@@H]1c3ccccc3SCc3c1ccc(F)c3F)[C@@H]1COCCN1C2=O [S-033188B, reference compound] | – | – | – | 15.3% | – | 0.78 mg/kg/day
[2H]C1([2H])Sc2ccccc2[C@@H](N2[C@@H]3COCCN3C(=O)c3c(O)c(=O)ccn32)c2ccc(F)c(F)c21 [2A] | – | – | – | 5.0% | 5 h | –
